Measurements: patent US20250002475A1 (EPICS THERAPEUTICS, priority 2023, published 2025)

Columns and labels:
[1] = tested on: Caov-3 cells; assay: Caov-3 cellular viability assay (ATP-Lite, 72 h); format: cell-based; conditions: Homo sapiens, ATP-Lite luminescence, % viability relative to DMSO
Outline: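 10000 cells/well treated 72 h at 37 °C, 5% CO2, in RPMI-1640 with 10% FBS and 0.1% DMSO final. Viability by ATP-Lite One Step luminescence. Expressed as % of DMSO control, with IC50 from each compound's concentration-response curve.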

[2] = tested on: Kasumi-1 cells; assay: Kasumi-1 cellular viability assay (ATP-Lite, 72 h); format: cell-based; conditions: Homo sapiens, ATP-Lite luminescence, % viability relative to DMSO
Outline: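 Kasumi-1 AML cells, 15000/well in RPMI-1640 with 10% FBS, were exposed to compound titrations (0.1% final DMSO) for 72 h at 37 °C, 5% CO2. ATP-Lite One Step luminescence gave % viability versus DMSO control, and IC50 came from the concentration-response.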

[3] = target: T1, recombinant METTL3/METTL14 complex (Homo sapiens, UniProt Q86U44); assay: METTL3/14 Scintillation Proximity Assay (SPA), RNA methyltransferase activity; format: biochemical; conditions: 5.31 nM METTL3/14 complex, 250 nM RNA substrate, 1 μM 3H-SAM, 90 min; for compounds marked * best of the two separated forms
T1 construct: purchased Active Motif 311970; host or cells: Sf9 cells
T1 sequence (Q86U44 whole entry): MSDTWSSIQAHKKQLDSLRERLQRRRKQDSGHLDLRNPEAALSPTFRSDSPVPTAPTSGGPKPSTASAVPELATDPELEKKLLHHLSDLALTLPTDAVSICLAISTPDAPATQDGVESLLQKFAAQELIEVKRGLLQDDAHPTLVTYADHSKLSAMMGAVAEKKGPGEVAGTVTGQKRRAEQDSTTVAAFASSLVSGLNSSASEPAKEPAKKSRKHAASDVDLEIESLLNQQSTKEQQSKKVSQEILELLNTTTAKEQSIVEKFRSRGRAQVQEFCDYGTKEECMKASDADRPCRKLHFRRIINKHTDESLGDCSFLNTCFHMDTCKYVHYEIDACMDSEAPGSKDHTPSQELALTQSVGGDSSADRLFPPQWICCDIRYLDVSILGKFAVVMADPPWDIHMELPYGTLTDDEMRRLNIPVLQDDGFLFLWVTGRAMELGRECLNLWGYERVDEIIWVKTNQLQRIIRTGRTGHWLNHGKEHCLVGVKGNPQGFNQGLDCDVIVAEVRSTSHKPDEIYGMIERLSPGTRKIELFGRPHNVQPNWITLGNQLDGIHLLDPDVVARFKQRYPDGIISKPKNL
T1 sequence (Q9HCE5 whole entry partner): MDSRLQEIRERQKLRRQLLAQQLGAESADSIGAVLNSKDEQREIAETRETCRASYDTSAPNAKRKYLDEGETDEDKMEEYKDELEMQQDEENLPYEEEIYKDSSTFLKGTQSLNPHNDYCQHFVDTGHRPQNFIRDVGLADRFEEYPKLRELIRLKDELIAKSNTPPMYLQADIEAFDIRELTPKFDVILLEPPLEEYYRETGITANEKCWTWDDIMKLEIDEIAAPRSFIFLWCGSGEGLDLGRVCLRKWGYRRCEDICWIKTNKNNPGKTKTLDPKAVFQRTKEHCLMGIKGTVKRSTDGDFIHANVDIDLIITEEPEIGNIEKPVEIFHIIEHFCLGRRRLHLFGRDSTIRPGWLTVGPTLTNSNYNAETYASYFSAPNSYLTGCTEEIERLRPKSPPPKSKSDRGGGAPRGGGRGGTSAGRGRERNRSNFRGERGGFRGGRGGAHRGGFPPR

| SMILES | IC50 [1] | IC50 [2] | IC50 [3] |
| --- | --- | --- | --- |
| COc1cc(-c2cn(Cc3ccc(N4CCC[C@@H](NCC56CC(F)(C5)C6)C4)nn3)nn2)c2cn[nH]c2c1 [Compound 018, (R)-N-((3-fluorobicyclo[1.1.1]pentan-1-yl)methyl)-1-(6-((4-(6-methoxy-1H-indazol-4-yl)-1H-1,2,3-triazol-1-yl)methyl)pyridazin-3-yl)piperidin-3-amine] | ≤ 500 nM | 500 to 5000 nM | ≤ 50 nM |
| COc1cnc(C#N)c(-c2cn(Cc3ccc(N4CCC[C@@H](NCC5CCC5)C4)nn3)nn2)c1 [Compound 019, (R)-3-(1-((6-(3-((cyclobutylmethyl)amino)piperidin-1-yl)pyridazin-3-yl)methyl)-1H-1,2,3-triazol-4-yl)-5-methoxypicolinonitrile] | > 5000 nM | > 5000 nM | ≤ 50 nM |
| COc1cc(-c2cn(Cc3ccc(N4CCCC(NCC56CC(C)(C5)C6)C4)nn3)nn2)c2cn[nH]c2c1 (stereo not drawn) [Compound 020, 1-(6-((4-(6-methoxy-1H-indazol-4-yl)-1H-1,2,3-triazol-1-yl)methyl)pyridazin-3-yl)-N-((3-methylbicyclo[1.1.1]pentan-1-yl)methyl)piperidin-3-amine] | 500 to 5000 nM | 500 to 5000 nM | ≤ 50 nM |
| COc1cc(-c2cn(Cc3ccc(N4CCC[C@@H](NCCC(C)(C)C)C4)nn3)nn2)c2cn[nH]c2c1 [Compound 024, (R)-N-(3,3-dimethylbutyl)-1-(6-((4-(6-methoxy-1H-indazol-4-yl)-1H-1,2,3-triazol-1-yl)methyl)pyridazin-3-yl)piperidin-3-amine] | > 5000 nM | > 5000 nM | ≤ 50 nM |
| COc1cc(-c2cn(Cc3ccc(N4CCCC(NC5CC56CCC6)C4)nn3)nn2)c2cn[nH]c2c1 (stereo not drawn) [Compound 025, 1-(6-((4-(6-methoxy-1H-indazol-4-yl)-1H-1,2,3-triazol-1-yl)methyl)pyridazin-3-yl)-N-(spiro[2.3]hexan-1-yl)piperidin-3-amine] | ≤ 500 nM | 500 to 5000 nM | ≤ 50 nM |
| COc1cc(-c2cn(Cc3cnc(N4CCCC(NCC5CCC5)C4)s3)nn2)c2cn[nH]c2c1 (stereo not drawn) [Compound 026, N-(cyclobutylmethyl)-1-(5-((4-(6-methoxy-1H-indazol-4-yl)-1H-1,2,3-triazol-1-yl)methyl)thiazol-2-yl)piperidin-3-amine] | > 5000 nM | 500 to 5000 nM | ≤ 50 nM |
| COc1cc(-c2cn(Cn3ccc(N4CCCC(NCC5CCC5)C4)cc3=O)nn2)c2cn[nH]c2c1 (stereo not drawn) [Compound 027, 4-(3-((cyclobutylmethyl)amino)piperidin-1-yl)-1-((4-(6-methoxy-1H-indazol-4-yl)-1H-1,2,3-triazol-1-yl)methyl)pyridin-2(1H)-one] | ≤ 500 nM | ≤ 500 nM | ≤ 50 nM |
| COc1cc(-c2cn(Cn3ncc(N4CCCC(NCC5CCC5)C4)cc3=O)nn2)c2cn[nH]c2c1 (stereo not drawn) [Compound 028, 5-(3-((cyclobutylmethyl)amino)piperidin-1-yl)-2-((4-(6-methoxy-1H-indazol-4-yl)-1H-1,2,3-triazol-1-yl)methyl)pyridazin-3(2H)-one] | 500 to 5000 nM | 500 to 5000 nM | ≤ 50 nM |
| COc1cc(-c2cn(Cc3ccc(N4CCC[C@@H](NC5CCC5)C4)nn3)nn2)c2cn[nH]c2c1 [Compound 030, (R)-N-cyclobutyl-1-(6-((4-(6-methoxy-1H-indazol-4-yl)-1H-1,2,3-triazol-1-yl)methyl)pyridazin-3-yl)piperidin-3-amine] | 500 to 5000 nM | 500 to 5000 nM | ≤ 50 nM |
| COc1cc(-c2cn(Cc3ccc(N4CCC[C@@H](NCC(C)C)C4)nn3)nn2)c2cn[nH]c2c1 [Compound 031, (R)-N-isobutyl-1-(6-((4-(6-methoxy-1H-indazol-4-yl)-1H-1,2,3-triazol-1-yl)methyl)pyridazin-3-yl)piperidin-3-amine] | 500 to 5000 nM | 500 to 5000 nM | ≤ 50 nM |
| COc1cc(-c2cn(Cc3ccc(N4CCC[C@@H](NCC(C)(C)C)C4)nn3)nn2)c2cn[nH]c2c1 [Compound 032, (R)-1-(6-((4-(6-methoxy-1H-indazol-4-yl)-1H-1,2,3-triazol-1-yl)methyl)pyridazin-3-yl)-N-neopentylpiperidin-3-amine] | ≤ 500 nM | 500 to 5000 nM | ≤ 50 nM |
| COc1cc(-c2cn(Cc3nnc(N4CCCC(NCC5CCC5)C4)s3)nn2)c2cn[nH]c2c1 (stereo not drawn) [Compound 036, N-(cyclobutylmethyl)-1-(5-((4-(6-methoxy-1H-indazol-4-yl)-1H-1,2,3-triazol-1-yl)methyl)-1,3,4-thiadiazol-2-yl)piperidin-3-amine] | > 5000 nM | > 5000 nM | ≤ 50 nM |
| COc1cc(-c2cn(Cc3ccc(N4CCC[C@@H](NCC5CCC5)C4)nc3)nn2)c2cn[nH]c2c1 [Compound 040, (R)-N-(cyclobutylmethyl)-1-(5-((4-(6-methoxy-1H-indazol-4-yl)-1H-1,2,3-triazol-1-yl)methyl)pyridin-2-yl)piperidin-3-amine] | ≤ 500 nM | ≤ 500 nM | ≤ 50 nM |
| COc1cc(-c2cn(Cc3ccc(N4CCC[C@@H](NCC5CCC5)C4)cn3)nn2)c2cn[nH]c2c1 [Compound 042, (R)-N-(cyclobutylmethyl)-1-(6-((4-(6-methoxy-1H-indazol-4-yl)-1H-1,2,3-triazol-1-yl)methyl)pyridin-3-yl)piperidin-3-amine] | ≤ 500 nM | ≤ 500 nM | ≤ 50 nM |
| COc1cc(-c2cn(Cc3cnc(N4CCCC(NCC5CCC5)C4)cn3)nn2)c2cn[nH]c2c1 (stereo not drawn) [Compound 047, N-(cyclobutylmethyl)-1-(5-((4-(6-methoxy-1H-indazol-4-yl)-1H-1,2,3-triazol-1-yl)methyl)pyrazin-2-yl)piperidin-3-amine] | > 5000 nM | 500 to 5000 nM | ≤ 50 nM |
| COc1cncc(-c2cn(Cc3ccc(N4C[C@@H](F)C[C@@H](NCC5CCC5)C4)nn3)nn2)c1 [Compound 056, (3R,5S)-N-(cyclobutylmethyl)-5-fluoro-1-(6-((4-(5-methoxypyridin-3-yl)-1H-1,2,3-triazol-1-yl)methyl)pyridazin-3-yl)piperidin-3-amine] | > 5000 nM | > 5000 nM | ≤ 50 nM |
| Clc1cc(-c2cn(Cc3ccc(N4CCC[C@@H](NCC5CCC5)C4)nn3)nn2)c2cn[nH]c2c1 [Compound 057, (R)-1-(6-((4-(6-chloro-1H-indazol-4-yl)-1H-1,2,3-triazol-1-yl)methyl)pyridazin-3-yl)-N-(cyclobutylmethyl)piperidin-3-amine] | 500 to 5000 nM | 500 to 5000 nM | ≤ 50 nM |
| O=C(NCc1ccc(N2CCC[C@@H](NCC3CCC3)C2)cn1)c1cc(=O)n2ccccc2n1 [Compound 060, (R)-N-((5-(3-((cyclobutylmethyl)amino)piperidin-1-yl)pyridin-2-yl)methyl)-4-oxo-4H-pyrido[1,2-a]pyrimidine-2-carboxamide] | > 5000 nM | > 5000 nM | ≤ 50 nM |
| COc1cncc(-c2cn(Cn3ccc(N4CCC[C@@H](NCC5CCC5)C4)cc3=O)nn2)c1 [Compound 063, (R)-4-(3-((cyclobutylmethyl)amino)piperidin-1-yl)-1-((4-(5-methoxypyridin-3-yl)-1H-1,2,3-triazol-1-yl)methyl)pyridin-2(1H)-one] | 500 to 5000 nM | 500 to 5000 nM | ≤ 50 nM |
| COc1cncc(-c2cn(C(C)n3ncc(N4CCC[C@@H](NCC5CCC5)C4)cc3=O)nn2)c1 (stereo partly drawn) [Compound 067, 5-((R)-3-((cyclobutylmethyl)amino)piperidin-1-yl)-2-(1-(4-(5-methoxypyridin-3-yl)-1H-1,2,3-triazol-1-yl)ethyl)pyridazin-3(2H)-one] | 500 to 5000 nM | 500 to 5000 nM | ≤ 50 nM |
| COc1cncc(-c2cn(Cc3ccc(N4CCC[C@@H](NCC5CCC5)C4)cc3)nn2)c1 [Compound 068, (R)-N-(cyclobutylmethyl)-1-(4-((4-(5-methoxypyridin-3-yl)-1H-1,2,3-triazol-1-yl)methyl)phenyl) piperidin-3-amine] | 500 to 5000 nM | 500 to 5000 nM | ≤ 50 nM |
| COc1cncc(-n2cc(Cn3ccc(N4CCC[C@@H](NCC5CCC5)C4)cc3=O)nn2)c1 [Compound 075, (R)-4-(3-((cyclobutylmethyl)amino)piperidin-1-yl)-1-((1-(5-methoxypyridin-3-yl)-1H-1,2,3-triazol-4-yl)methyl)pyridin-2(1H)-one] | 500 to 5000 nM | > 5000 nM | ≤ 50 nM |
| COc1cncc(-c2nnc(Cn3ccc(N4CCC[C@@H](NCC5CCC5)C4)cc3=O)s2)c1 [Compound 077, (R)-4-(3-((cyclobutylmethyl)amino)piperidin-1-yl)-1-((5-(5-methoxypyridin-3-yl)-1,3,4-thiadiazol-2-yl)methyl)pyridin-2(1H)-one] | 500 to 5000 nM | 500 to 5000 nM | ≤ 50 nM |
| COc1cncc(-c2cn(Cc3ccc(N4CCC[C@@H](NCC5CCC5)C4)nn3)cn2)c1 [Compound 081, (R)-N-(cyclobutylmethyl)-1-(6-((4-(5-methoxypyridin-3-yl)-1H-imidazol-1-yl)methyl)pyridazin-3-yl)piperidin-3-amine] | ≤ 500 nM | 500 to 5000 nM | ≤ 50 nM |
| COc1cncc(-c2cn(C(C)(C)c3ccc(N4CCC[C@@H](NCC5CCC5)C4)nn3)nn2)c1 [Compound 082, (R)-N-(cyclobutylmethyl)-1-(6-(2-(4-(5-methoxypyridin-3-yl)-1H-1,2,3-triazol-1-yl)propan-2-yl)pyridazin-3-yl)piperidin-3-amine] | 500 to 5000 nM | 500 to 5000 nM | ≤ 50 nM |
